Laboratory results as given in PubChem BioAssay (NCI).
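Abbreviation: GI50, concentration required for 50% inhibition of growth. TGI: total growth inhibition.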

How the values were obtained:
Assay in all cases: NCI anticancer screen, dose series, 384-well format
[1] = system: HOP-62 NSCLC
[2] = system: CAKI-1 renal
[3] = system: U251 glioblastoma
[4] = system: MALME-3M melanoma
[5] = system: UACC-62 melanoma
[6] = system: A549 NSCLC
[7] = system: M14 melanoma
[8] = system: IGROV1 ovarian
[9] = system: SN12C renal
[10] = system: BT-549 breast
[11] = system: MCF7 breast
[12] = system: SNB-75 CNS
[13] = system: SNB-19 CNS
[14] = system: HCC-2998 colon
[15] = system: SK-MEL-5 melanoma
[16] = system: SK-MEL-28 melanoma
[17] = system: NCI-H460 NSCLC
[18] = system: SK-MEL-2 melanoma
[19] = system: MDA-MB-468 breast
[20] = system: OVCAR-3 ovarian
[21] = system: TK-10 renal
[22] = system: UO-31 renal
[23] = system: NCI/ADR-RES ovarian
[24] = system: A498 renal
[25] = system: T-47D breast
[26] = system: HS 578T breast
[27] = system: HOP-92 NSCLC
[28] = system: MOLT-4 leukemia
[29] = system: PC-3 prostate
[30] = system: NCI-H226 lung
[31] = system: SF-295 CNS
[32] = system: OVCAR-5 ovarian
[33] = system: RPMI-8226 leukemia
[34] = system: KM12 colon
[35] = system: ACHN renal
[36] = system: 786-0 renal
[37] = system: HT29 colon
[38] = system: CCRF-CEM leukemia
[39] = system: OVCAR-4 ovarian
[40] = system: NCI-H522 lung
[41] = system: RXF 393 renal
[42] = system: SK-OV-3 ovarian
[43] = system: EKVX NSCLC
[44] = system: LOX IMVI melanoma
[45] = system: NCI-H322M lung
[46] = system: DU-145 prostate
[47] = system: HCT-15 colon

In the case of `CC(F)(F)c1cc(F)ccc1-c1sc2cc(O)ccc2c1Oc1ccc(/C=C/C(=O)O)cc1`, the GI50 [1] is reported as 9.88 µM, the TGI [1] is reported as 21.8 µM and the GI50 [2] is reported as 15.1 µM. It also gave a TGI [2] of 29.9 µM, a GI50 [3] of 12.6 µM and a TGI [3] of 25.3 µM. The GI50 [4] was 13.5 µM, the TGI [4] was 27.8 µM and the GI50 [5] was 9.94 µM. It also gave a TGI [5] of 21.6 µM, a GI50 [6] of 13.8 µM and a TGI [6] of 31.2 µM. It also gave a GI50 [7] of 11.6 µM, a TGI [7] of 25.8 µM and a GI50 [8] of 18.1 µM. The TGI [8] was 39.3 µM, the GI50 [9] was 20.1 µM and the TGI [9] was 40.5 µM. For the same compound, the GI50 [10] was 12.8 µM, the TGI [10] was 26.7 µM and the TGI [11] was 14 µM. It also gave a GI50 [12] of 15.5 µM, a TGI [12] of 33 µM and a GI50 [13] of 12.7 µM. It also gave a TGI [13] of 25.6 µM, a GI50 [14] of 18.2 µM and a TGI [14] of 32.3 µM. For the same compound, the GI50 [15] was 12.2 µM, the TGI [15] was 24.7 µM and the GI50 [16] was 11.5 µM. The TGI [16] was 32.9 µM, the GI50 [17] was 17.6 µM and the TGI [17] was 31.8 µM. The GI50 [18] was 13.6 µM, the TGI [18] was 28.9 µM and the GI50 [19] was 11.7 µM. It also gave a TGI [19] of 26.6 µM, a GI50 [20] of 12.6 µM and a TGI [20] of 25.8 µM. For the same compound, the GI50 [21] was 22.9 µM, the TGI [21] was 61.6 µM and the GI50 [22] was 12.4 µM. For the same compound, the TGI [22] was 26.3 µM, the GI50 [23] was 16.5 µM and the TGI [23] was greater than 100 µM. For the same compound, the GI50 [24] was 13.3 µM, the TGI [24] was 29.1 µM and the GI50 [25] was 11.2 µM. It also gave a TGI [25] of 25.9 µM, a GI50 [26] of 10.2 µM and a TGI [26] of 22 µM. The GI50 [27] was 16.1 µM, the TGI [27] was 35.3 µM and the GI50 [28] was 13.3 µM. The TGI [28] was 26.1 µM, the GI50 [29] was 13.9 µM and the TGI [29] was 28.1 µM. For the same compound, the GI50 [30] was 20 µM, the TGI [30] was 40.3 µM and the GI50 [31] was 7.72 µM. For the same compound, the TGI [31] was 21.6 µM, the GI50 [32] was 18.2 µM and the TGI [32] was 33.6 µM. For the same compound, the GI50 [33] was 11 µM, the TGI [33] was 23.2 µM and the GI50 [34] was 12.7 µM. For the same compound, the TGI [34] was 25.5 µM, the GI50 [35] was 17 µM and the TGI [35] was 37.8 µM. For the same compound, the GI50 [36] was 14.6 µM, the TGI [36] was 33.4 µM and the GI50 [37] was 16.2 µM. For the same compound, the TGI [37] was 31.4 µM, the GI50 [38] was 12.6 µM and the TGI [38] was 25.2 µM. The GI50 [39] was 19.5 µM, the TGI [39] was 74.9 µM and the GI50 [40] was 8.38 µM. The TGI [40] was 21.3 µM, the GI50 [41] was 5 µM and the TGI [41] was 18.5 µM. It also gave a GI50 [42] of 20.2 µM, a TGI [42] of 43.5 µM and a GI50 [43] of 16.9 µM. The TGI [43] was 37.9 µM, the GI50 [44] was 13.5 µM and the TGI [44] was 26.7 µM. For the same compound, the GI50 [45] was 14.4 µM, the TGI [45] was 33.6 µM and the GI50 [46] was 17.4 µM. The TGI [46] was 42.3 µM, the GI50 [47] was 11.3 µM and the TGI [47] was 24 µM.
